In ChEMBL document CHEMBL4414619, “Protein Tyrosine Phosphatase 1B Inhibitory Iridoids from Psydrax subcordata” (J Nat Prod, 2019):

molecular target: T1, Tyrosine-protein phosphatase non-receptor type 1 (Homo sapiens, UniProt P18031); assay: (§1) Competitive inhibition of N-terminal GST-tagged recombinant human PTP1B catalytic domain (1 to 321 residues) expressed in Escherichia coli assessed as inhibitory constant using pNPP as substrate preincubated for 10 mins followed by incubation with substrate for 30 mins and measured every 5 mins for 30 mins by Lineweaver-burk plot based Dixon plot analysis
T1 sequence (P18031 whole entry): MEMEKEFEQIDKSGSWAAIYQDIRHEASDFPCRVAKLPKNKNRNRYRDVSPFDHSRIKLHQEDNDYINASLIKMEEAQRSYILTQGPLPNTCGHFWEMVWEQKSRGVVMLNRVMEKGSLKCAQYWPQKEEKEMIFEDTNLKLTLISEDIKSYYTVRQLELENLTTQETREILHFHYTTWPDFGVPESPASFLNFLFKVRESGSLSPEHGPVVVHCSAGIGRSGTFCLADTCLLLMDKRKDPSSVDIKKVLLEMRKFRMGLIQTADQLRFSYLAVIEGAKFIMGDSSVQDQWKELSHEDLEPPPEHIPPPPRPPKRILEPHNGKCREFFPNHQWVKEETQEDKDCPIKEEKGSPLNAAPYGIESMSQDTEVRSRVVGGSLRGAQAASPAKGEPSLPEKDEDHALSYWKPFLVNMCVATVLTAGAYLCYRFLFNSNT

| Structure (SMILES) | Ki [µM] |
| --- | --- |
| CC1=C2COC(=O)[C@H](CO)[C@H]2[C@H](O)C1 | 4.13 |
| CC1=C2COC(=O)[C@@H](CO)[C@H]2[C@H](O)C1 | 2.57 |

molecular target: T2, Tyrosine-protein phosphatase non-receptor type 1 (Homo sapiens) (UniProt P18031); assay: as §1, with “Ratio” for “Competitive inhibition”, “of kinetic constant Kik to Kiv at” for “of”, “coli” for “coli assessed as inhibitory constant”, “plot” for “plot based Dixon plot”
T2 sequence (whole entry): T1 sequence (P18031 whole entry)

| Structure (SMILES) | Ratio |
| --- | --- |
| CC1=C2COC(=O)[C@H](CO)[C@H]2[C@H](O)C1 | 6.86 to 37.6 |
| CC1=C2COC(=O)[C@@H](CO)[C@H]2[C@H](O)C1 | 6.86 to 37.6 |

molecular target: T1, Tyrosine-protein phosphatase non-receptor type 1; assay: Inhibition of N-terminal GST tagged recombinant human PTP1B catalytic domain (1 to 321 residues) expressed in Escherichia coli using pNPP as substrate preincubated for 10 mins followed by substrate addition and measured every 5 mins for 30 mins

| Structure (SMILES) | IC50 [µM] |
| --- | --- |
| COC(=O)C1=C(C)C[C@@H](O)[C@@H]1[C@H](CO)C(=O)OC | > 80 |
| COC(=O)[C@H]1COC(=O)C2=C(C)C[C@@H](O)[C@@H]21 | > 80 |
| COC(=O)C1=C(C)C[C@@H](O)[C@@H]1CCO | > 80 |
| COC(=O)[C@H](CO)[C@@H]1C(CO)=C(C)C[C@H]1O | > 80 |
| CC1=C2COC(=O)[C@H](CO)[C@H]2[C@H](O)C1 | 9.8 |
| CC1=C2C(=O)OCC[C@H]2[C@H](O)C1 | > 80 |
| CC1=C2COC(=O)[C@@H](CO)[C@H]2[C@H](O)C1 | 8.9 |
| COC(=O)[C@@H](CO)[C@@H]1C(CO)=C(C)C[C@H]1O | > 80 |
| COC(=O)C1=CO[C@@]2(C)C[C@@H](O)[C@H]1[C@@H]2CO | 22.2 |
| CC1=C(CO)[C@@H](CCO)[C@H](O)C1 | > 80 |
| CC1=C[C@@H](O)[C@@H]2[C@@H](CO)C(=O)O[C@]12CO | 43.6 |
